Data reported in the NIST ThermoML archive (doi:10.1016/j.fluid.2005.09.012).
Numbers after ± are expanded uncertainties.

Legend:
[1] = refractive index (Na D-line) (dimensionless); details: 293.15 K; 101.33 kPa; Liquid
[2] = Liquid; for mass density: 293.15 K, 101.33 kPa

SMILES	refractive index [1]	mass density [2]	further results
Cc1cccc(C)c1 [1,3-dimethylbenzene]	1.4972 ± 0.0017	864.4 ± 2.1 kg/m3	vapor or sublimation pressure ([2]; 410.35 K): 95.75 ± 9 kPa
ClC(Cl)C(Cl)Cl [1,1,2,2-tetrachloroethane]	1.494 ± 0.0017	1593 ± 4.5 kg/m3	vapor or sublimation pressure ([2]; 417.35 K): 95.75 ± 9 kPa
ClC=C(Cl)Cl [trichloroethene]	1.4782 ± 0.0017	1464 ± 4.1 kg/m3	vapor or sublimation pressure ([2]; 357.95 K): 95.75 ± 9 kPa
Cc1ccc(C)cc1 [1,4-dimethylbenzene]	1.4858 ± 0.0017	861 ± 2.1 kg/m3	vapor or sublimation pressure ([2]; 409.35 K): 95.75 ± 9 kPa
ClC(Cl)=C(Cl)Cl [tetrachloroethene]	1.505 ± 0.0017	1625 ± 4.6 kg/m3	vapor or sublimation pressure ([2]; 392.25 K): 95.75 ± 9 kPa
Cc1ccccc1C [1,2-dimethylbenzene]	1.5055 ± 0.0017	880.1 ± 2.2 kg/m3	vapor or sublimation pressure ([2]; 415.55 K): 95.75 ± 9 kPa
Cc1ccccc1O [2-methylphenol]	1.5467 ± 0.0017	1046 ± 2.7 kg/m3	vapor or sublimation pressure ([2]; 461.85 K): 95.75 ± 9.6 kPa
CCCCCCC [heptane]	1.3876 ± 0.0017	683.8 ± 1.5 kg/m3	vapor or sublimation pressure ([2]; 369.75 K): 95.75 ± 9 kPa
ClCCCl [1,2-dichloroethane]	1.4196 ± 0.0017	1252.9 ± 3.4 kg/m3	vapor or sublimation pressure ([2]; 355.25 K): 95.75 ± 9 kPa
